Laboratory results from US8513428B2, “Process for preparing atazanavir bisulfate and novel forms” (Bristol-Meyers Squibb Company, priority 2009, dated 2013).
Counter-ions that a name gives are not always drawn.

Assay: moisture-sorption isotherms
Assay type: physicochemical
Conditions: in the range from 25 to 75% RH at 25° C.

- moisture-sorption isotherms weight gain: about 0.1%
SMILES: COC(=O)N[C@H](C(=O)N[C@@H](Cc1ccccc1)[C@@H](O)CN(Cc1ccc(-c2ccccn2)cc1)NC(=O)[C@@H](NC(=O)OC)C(C)(C)C)C(C)(C)C [Form A, 1-[4-(Pyridin-2-yl)phenyl]-5(S)-2,5-bis{[N-(methoxycarbonyl)-L-tert-leucinyl]amino}-4-(S)-hydroxy-6-phenyl-2-azahexane, Bisulfate salt (Form A)]
